Species on record: Rattus norvegicus
Assay: Open TG-GATES - Regimen: Daily Repeat
Assay type: toxicity, organism-based, Sprague-Dawley
Set-up: regimen Daily Repeat, gender Male, age 6 weeks
Conditions: in vivo, po, 30 mg/kg, route gavage, dose level High; for APTT / Bas / Eos / Fbg / Hb / Ht / Lym / MCH / MCHC / MCV / Mono / Neu / PT / Plat / RBC / Ret / WBC: tissue Blood; for KIDNEY_L / KIDNEY_R / KIDNEY_TOTAL: tissue Kidney; for LIVER: tissue Liver; for A/G / ALP / ALT / AST / BUN / CRE / Ca / Cl / DBIL / GLC / IP / K / LDH / Na / PL / RALB / TBIL / TC / TG / TP / gamma-GTP: tissue Plasma

## C=CCO [ALLYL ALCOHOL]
72 h, time 3 day
  TERMINAL_BW: 229 g
  APTT: 18.4 s
  Bas: 0%
  Eos: 0.8%
  Fbg: 258.6 mg/dL
  Hb: 13.4 g/dL
  Ht: 39.4%
  Lym: 80%
  MCH: 20.9 pg
  MCHC: 33.9%
  MCV: 61.7 fL
  Mono: 3.4%
  Neu: 15.2%
  PT: 11.7 s
  Plat: 142.1 x10_4/uL
  RBC: 639.6 x10_4/ul
  Ret: 4.7%
  WBC: 128.3 x10_2/uL
  KIDNEY_L: 1 g
  KIDNEY_R: 1 g
  KIDNEY_TOTAL: 2 g
  LIVER: 11.1 g
  A/G: 1.5
  ALP: 874.6 IU/L
  ALT: 39.6 IU/L
  AST: 71 IU/L
  BUN: 13.6 mg/dL
  CRE: 0.4 mg/dL
  Ca: 10.5 mg/dL
  Cl: 103.2 meq/L
  DBIL: 0.058 mg/dL
  GLC: 206.2 mg/dL
  IP: 7.4 mg/dL
  K: 3.5 meq/L
  LDH: 221.2 IU/L
  Na: 141.2 meq/L
  PL: 125.4 mg/dL
  RALB: 3 g/dL
  TBIL: 0.1 mg/dL
  TC: 73.2 mg/dL
  TG: 59 mg/dL
  TP: 5 g/dL
  gamma-GTP: 1 IU/L
[…], time 7 day
  TERMINAL_BW: 238.1 g
  APTT: 21.6 s
  Bas: 0%
  Eos: 0.8%
  Fbg: 334.8 mg/dL
  Hb: 14 g/dL
  Ht: 40.7%
  Lym: 74%
  MCH: 20.6 pg
  MCHC: 34.4%
  MCV: 60.2 fL
  Mono: 5.6%
  Neu: 18.2%
  PT: 13.1 s
  Plat: 146.5 x10_4/uL
  RBC: 676 x10_4/ul
  Ret: 3.1%
  WBC: 193.8 x10_2/uL
  KIDNEY_L: 1 g
  KIDNEY_R: 1.1 g
  KIDNEY_TOTAL: 2.1 g
  LIVER: 12.6 g
  A/G: 1.2
  ALP: 938.4 IU/L
  ALT: 195.4 IU/L
  AST: 610 IU/L
  BUN: 11.4 mg/dL
  CRE: 0.4 mg/dL
  Ca: 10.6 mg/dL
  Cl: 102.4 meq/L
  DBIL: 0.088 mg/dL
  GLC: 182.4 mg/dL
  IP: 7 mg/dL
  K: 3.7 meq/L
  LDH: 310.6 IU/L
  Na: 140.6 meq/L
  PL: 130.8 mg/dL
  RALB: 3 g/dL
  TBIL: 0.2 mg/dL
  TC: 72.6 mg/dL
  TG: 62.8 mg/dL
  TP: 5.6 g/dL
  gamma-GTP: 2.6 IU/L
[…], time 14 day
  TERMINAL_BW: 285 g
  APTT: 19.2 s
  Bas: 0%
  Eos: 0.8%
  Fbg: 250.6 mg/dL
  Hb: 13.7 g/dL
  Ht: 40%
  Lym: 70.2%
  MCH: 19.6 pg
  MCHC: 34.2%
  MCV: 57.3 fL
  Mono: 3.8%
  Neu: 24.8%
  PT: 12.4 s
  Plat: 192.6 x10_4/uL
  RBC: 698 x10_4/ul
  Ret: 5.4%
  WBC: 181.3 x10_2/uL
  KIDNEY_L: 1.2 g
  KIDNEY_R: 1.2 g
  KIDNEY_TOTAL: 2.4 g
  LIVER: 14.4 g
  A/G: 1.3
  ALP: 758.4 IU/L
  ALT: 42.8 IU/L
  AST: 85.6 IU/L
  BUN: 14.2 mg/dL
  CRE: 0.4 mg/dL
  Ca: 10.7 mg/dL
  Cl: 101.8 meq/L
  DBIL: 0.07 mg/dL
  GLC: 202.6 mg/dL
  IP: 6.7 mg/dL
  K: 3.5 meq/L
  LDH: 234.8 IU/L
  Na: 141 meq/L
  PL: 140.8 mg/dL
  RALB: 3.4 g/dL
  TBIL: 0.1 mg/dL
  TC: 70.2 mg/dL
  TG: 69.6 mg/dL
  TP: 5.9 g/dL
  gamma-GTP: 1.4 IU/L
[…], time 28 day
  TERMINAL_BW: 374.2 g
  APTT: 20.5 s
  Bas: 0%
  Eos: 1.2%
  Fbg: 218.6 mg/dL
  Hb: 15.2 g/dL
  Ht: 44.1%
  Lym: 78%
  MCH: 18.7 pg
  MCHC: 34.5%
  MCV: 54.3 fL
  Mono: 2.8%
  Neu: 17.2%
  PT: 12.1 s
  Plat: 107.4 x10_4/uL
  RBC: 813.2 x10_4/ul
  Ret: 2.8%
  WBC: 109.1 x10_2/uL
  KIDNEY_L: 1.3 g
  KIDNEY_R: 1.3 g
  KIDNEY_TOTAL: 2.6 g
  LIVER: 16.7 g
  A/G: 1.2
  ALP: 615.8 IU/L
  ALT: 39.2 IU/L
  AST: 64 IU/L
  BUN: 16.8 mg/dL
  CRE: 0.5 mg/dL
  Ca: 10.5 mg/dL
  Cl: 102.6 meq/L
  DBIL: 0.068 mg/dL
  GLC: 220.6 mg/dL
  IP: 5.6 mg/dL
  K: 3.5 meq/L
  LDH: 188.2 IU/L
  Na: 139.6 meq/L
  PL: 135.6 mg/dL
  RALB: 3.3 g/dL
  TBIL: 0.1 mg/dL
  TC: 65.6 mg/dL
  TG: 98.6 mg/dL
  TP: 6 g/dL
  gamma-GTP: 1 IU/L
